Measurements reported in patent publication US12152012B2, “BRAG2 inhibitors and applications thereof” (CENTRE NATIONAL DE LA RECHERCHE SCIENTIFIQUE, priority 2018, dated 2024).

Experiments:
Test in all cases: Nucleotide exchange fluorescence kinetics in solution, Sec7 domain with truncated Arf1
Type in all cases: biochemical
Conditions in all cases: 50 μM, no membranes
[1] = target: T1, Sec7 domain of BIG1 (Homo sapiens, UniProt Q9Y6D6)
T1 construct: BIG1^Sec7 (691-889), BIG1^DcbHusSec7 (2-888); made in house
T1 sequence (Q9Y6D6 691-889): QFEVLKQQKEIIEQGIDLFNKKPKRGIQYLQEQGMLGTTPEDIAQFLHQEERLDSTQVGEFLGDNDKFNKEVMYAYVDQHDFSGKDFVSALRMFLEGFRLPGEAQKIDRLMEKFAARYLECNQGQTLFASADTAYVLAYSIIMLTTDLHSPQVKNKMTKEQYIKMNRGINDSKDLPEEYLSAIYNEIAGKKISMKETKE
Procedure: (§1) The effect of Bragsin1 on the GEF efficiency of representative human ArfGEFs was evaluated by fluorescence kinetics using highly purified recombinant Arf GTPases and ArfGEFs. In a first series of assays, the Sec7 domains of BIG1, a Golgi ArfGEF, and of ARNO, EFA6a and BRAG2, which function at the plasma membrane, were used. When tested in solution, Bragsin1 had no effect on the activation of Arf1 by any of these Sec7 domains (FIGS. 2a and 14). Separately, we reconstituted the activation of myristoylated Arf1 by the same ArfGEFs on liposomes using ArfGEF constructs that contain a membrane-binding domain (DCB-HUS domain for BIG1, PH domains for the other GEFs). […] BRAG2 activates several Arf isoforms, including the plasma membrane-located Arf6 isoform. […] Bragsin1 and Bragsin2 have the same IC50 towards BRAG2 ([…]) according to dose-response analysis, confirming that Bragsin1 and Bragsin2 can be used interchangeably (FIG. 2d). The specific inhibition of BRAG2 by Bragsin in vitro predicts that BRAG2 silencing by siRNA should yield the same phenotype as treatment by the small molecule. Silencing of BRAG2 induced the redistribution of TGN46 into tubular or punctate structures, which phenocopied the effects induced by Bragsin (FIGS. 2e, 17 and 18). […] Silencing of ARNO, which is located at the plasma membrane, had no effect on TGN46 distribution. Overexpression of BRAG2-mCherry rescued the dispersion of the TGN46 structure induced by Bragsin, which is consistent with the silencing experiments (FIG. 2f). Bragsin is a specific inhibitor of the ArfGEF BRAG2 in vitro and in cells according to these experiments. These oexperiments identify a mechanism of inhibition that requires the membrane to manifests itself. […]
(§2) Nucleotide exchange kinetics were monitored by tryptophan fluorescence with excitation/emission wavelengths of 292/340 nm using a Cary Eclipse fluorimeter (Varian) at 37° C. and under continuous stirring as described in ^50,51. For specificity assays, 50 μM of Bragsin1 or 0.25% DMSO were incubated for 2 min at 37° C. in HKM buffer (50 mM HEPES pH 7.4, 120 mM potassium acetate, 1 mM MgCl2 and 1 mM DTT) with either 1 μM of N-terminally truncated Arf-GDP and 100 nM of indicated Sec7 domain (in solution) or 0.4 μM of ^myrArf1 in the presence of 100 μM of liposomes and 2 to 100 nM of ArfGEFs as described in (Benabdi, S. et al. Biochemistry 56, 5125-5133 (2017) and Peurois, F. et al. Biochem J 474, 1259-1272 (2017). Nucleotide exchange rates (kobs) were determined from monoexponential fits and means are given as the percentage of control activity±SD. […]

[2] = target: T2, Sec7 domain of ARNO (Homo sapiens, UniProt Q99418)
T2 construct: ARNO^Sec7 (50-256), BIG1^Sec7 (691-889); made in house
T2 sequence (Q99418 50-256): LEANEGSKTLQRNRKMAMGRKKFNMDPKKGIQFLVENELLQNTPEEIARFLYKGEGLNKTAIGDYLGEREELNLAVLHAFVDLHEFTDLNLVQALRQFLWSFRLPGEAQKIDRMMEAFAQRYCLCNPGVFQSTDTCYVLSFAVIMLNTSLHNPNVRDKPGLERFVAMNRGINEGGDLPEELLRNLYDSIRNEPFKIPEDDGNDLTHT
Procedure: as §1, §2

[3] = target: T3, Sec7 domain of EFA6a (Homo sapiens, UniProt A5PKW4)
T3 construct: human EFA6^Sec7 (527-727) and EFA6^Sec7PHCt (527-1024); made in house
Procedure: as §1, §2

[4] = target: T4, Sec7 domain of BRAG2 (Homo sapiens, UniProt Q6DN90)
T4 construct: human BRAG2^Sec7 (390-594) and BRAG2^Sec7PH (390-811); made in house
Procedure: as §1, §2

Measured: Effect on activation of Arf1 by Sec7 domain in solution

T4 sequence (Q6DN90 512-716): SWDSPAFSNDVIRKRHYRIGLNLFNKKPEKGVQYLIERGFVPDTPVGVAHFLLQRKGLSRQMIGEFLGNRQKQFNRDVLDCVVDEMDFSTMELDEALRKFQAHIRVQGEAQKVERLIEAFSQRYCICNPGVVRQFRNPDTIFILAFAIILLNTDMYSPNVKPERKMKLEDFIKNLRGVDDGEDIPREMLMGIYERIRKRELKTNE
T3 sequence (A5PKW4 527-727): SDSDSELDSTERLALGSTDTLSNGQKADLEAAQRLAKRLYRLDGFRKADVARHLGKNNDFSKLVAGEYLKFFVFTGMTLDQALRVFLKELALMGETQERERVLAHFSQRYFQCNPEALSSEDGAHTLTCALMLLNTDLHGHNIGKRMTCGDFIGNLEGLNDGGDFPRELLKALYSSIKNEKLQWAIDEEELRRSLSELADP

Cc1ccc2oc(C(F)(F)F)cc(=O)c2c1[N+](=O)[O-] [Bragsin1, 6-methyl-5-nitro-2-(trifluoromethyl)-4H-chromen-4-one]
no effect: all assays above
